Results as given in ChEMBL document CHEMBL1201862, “PubChem BioAssay data set” (2004).
One block for each compound: values may come before it. The source made the active and inactive calls.

Key:
[1] = molecular target: Dual specificity mitogen-activated protein kinase kinase 1 (Homo sapiens, UniProt Q02750); assay: Navigating the Kinome. Panel member name: MAP2K1; format: functional
Activated CDC42 kinase 1 = Activated CDC42 kinase 1 (Homo sapiens, UniProt Q07912); assay: Navigating the Kinome. Panel member name: ACK1; format: functional
[2] = molecular target: G protein-coupled receptor kinase 5 (Homo sapiens, UniProt P34947); assay: Navigating the Kinome. Panel member name: GPRK5; format: functional
[3] = molecular target: Cyclin-dependent kinase 5 (Homo sapiens, UniProt Q00535); format: functional;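 also: CDK5 measured as one member of a kinase profiling panel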
[4] = molecular target: Cyclin-dependent kinase 9 (Homo sapiens, UniProt P50750); format: functional;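 also: value from the CDK9 entry of a kinome-spanning kinase panel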
[5] = molecular target: Macrophage-stimulating protein receptor (Homo sapiens, UniProt Q04912); assay: Navigating the Kinome. Panel member name: MST1R; format: functional
[6] = molecular target: Calcium/calmodulin-dependent protein kinase type II subunit alpha (Homo sapiens, UniProt Q9UQM7); assay: Navigating the Kinome. Panel member name: CAMK2A; format: functional
Chain of Calcium/calmodulin-dependent protein kinase type II subunit alpha (Q9UQM7 whole entry): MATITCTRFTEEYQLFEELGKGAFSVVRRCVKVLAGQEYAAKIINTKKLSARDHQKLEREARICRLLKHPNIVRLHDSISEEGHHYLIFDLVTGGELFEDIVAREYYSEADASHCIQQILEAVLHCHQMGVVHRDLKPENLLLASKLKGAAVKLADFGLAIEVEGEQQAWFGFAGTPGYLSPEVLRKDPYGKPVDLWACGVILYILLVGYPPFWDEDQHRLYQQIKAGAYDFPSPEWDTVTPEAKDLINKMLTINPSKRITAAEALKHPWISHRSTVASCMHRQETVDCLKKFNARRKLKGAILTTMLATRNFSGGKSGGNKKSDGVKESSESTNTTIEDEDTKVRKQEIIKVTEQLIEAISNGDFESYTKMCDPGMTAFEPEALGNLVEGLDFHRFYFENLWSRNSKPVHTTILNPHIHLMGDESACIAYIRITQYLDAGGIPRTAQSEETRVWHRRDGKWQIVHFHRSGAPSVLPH

[7] = molecular target: Calcium/calmodulin-dependent protein kinase type II subunit gamma (Homo sapiens, UniProt Q13555); format: functional
[8] = molecular target: Eukaryotic elongation factor 2 kinase (Homo sapiens, UniProt O00418); format: functional
[9] = molecular target: Tyrosine-protein kinase SYK (Homo sapiens, UniProt P43405); format: functional
SRSF protein kinase 1 = SRSF protein kinase 1 (Homo sapiens, UniProt Q96SB4); format: functional;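 also: measured as one member of a kinome-wide kinase profiling panel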
[10] = molecular target: MAP kinase-activated protein kinase 5 (Homo sapiens, UniProt Q8IW41); format: functional;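 also: measured as one member of a kinome panel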
Chain of MAP kinase-activated protein kinase 5 (Q8IW41 whole entry): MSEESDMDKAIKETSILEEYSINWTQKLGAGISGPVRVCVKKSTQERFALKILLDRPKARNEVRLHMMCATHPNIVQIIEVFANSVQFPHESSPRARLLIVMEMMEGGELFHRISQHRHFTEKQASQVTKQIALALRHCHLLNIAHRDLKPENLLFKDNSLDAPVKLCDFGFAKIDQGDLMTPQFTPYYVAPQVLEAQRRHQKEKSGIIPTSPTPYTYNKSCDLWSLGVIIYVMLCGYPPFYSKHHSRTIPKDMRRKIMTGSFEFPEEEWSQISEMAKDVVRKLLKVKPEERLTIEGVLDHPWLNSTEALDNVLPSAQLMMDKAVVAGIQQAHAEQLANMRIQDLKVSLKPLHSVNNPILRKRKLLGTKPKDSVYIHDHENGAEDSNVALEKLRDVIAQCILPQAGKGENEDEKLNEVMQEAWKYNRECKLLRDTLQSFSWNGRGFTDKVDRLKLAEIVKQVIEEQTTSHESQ

[11] = molecular target: Cell division cycle 7-related protein kinase (Homo sapiens, UniProt O00311); format: functional;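 also: value obtained from a kinome-wide kinase panel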
[12] = molecular target: Serine/threonine-protein kinase N2 (Homo sapiens, UniProt Q16513); format: functional
Chain of Serine/threonine-protein kinase N2 (Q16513 whole entry): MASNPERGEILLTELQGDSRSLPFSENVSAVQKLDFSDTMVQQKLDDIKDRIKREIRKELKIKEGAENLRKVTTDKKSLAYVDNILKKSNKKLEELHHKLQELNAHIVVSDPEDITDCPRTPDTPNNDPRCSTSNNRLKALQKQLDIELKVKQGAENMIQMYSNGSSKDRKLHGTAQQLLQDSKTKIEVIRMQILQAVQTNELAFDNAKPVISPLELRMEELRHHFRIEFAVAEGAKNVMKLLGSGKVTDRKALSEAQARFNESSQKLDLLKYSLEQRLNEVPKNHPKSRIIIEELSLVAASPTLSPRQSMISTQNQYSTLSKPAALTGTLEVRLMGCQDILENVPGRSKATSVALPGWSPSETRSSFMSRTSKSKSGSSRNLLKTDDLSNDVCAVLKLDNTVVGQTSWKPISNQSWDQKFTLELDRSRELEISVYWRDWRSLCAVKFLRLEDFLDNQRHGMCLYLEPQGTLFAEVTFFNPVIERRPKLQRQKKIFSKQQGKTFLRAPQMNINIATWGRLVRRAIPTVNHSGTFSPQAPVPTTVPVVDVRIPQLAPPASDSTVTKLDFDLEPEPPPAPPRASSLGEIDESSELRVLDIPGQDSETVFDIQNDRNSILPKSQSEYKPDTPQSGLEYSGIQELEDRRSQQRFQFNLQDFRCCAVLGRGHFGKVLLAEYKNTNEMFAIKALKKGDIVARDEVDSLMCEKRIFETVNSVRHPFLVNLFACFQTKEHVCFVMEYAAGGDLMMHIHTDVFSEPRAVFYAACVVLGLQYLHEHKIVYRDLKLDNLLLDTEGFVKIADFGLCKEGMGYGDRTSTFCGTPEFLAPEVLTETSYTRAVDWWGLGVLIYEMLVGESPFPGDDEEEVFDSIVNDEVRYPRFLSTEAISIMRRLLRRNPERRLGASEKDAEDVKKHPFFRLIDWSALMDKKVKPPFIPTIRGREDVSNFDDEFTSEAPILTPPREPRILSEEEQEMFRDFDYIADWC

[13] = molecular target: Proto-oncogene tyrosine-protein kinase ROS (Homo sapiens, UniProt P08922); format: functional;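 also: ROS1 tested as one member of a kinome-wide kinase panel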
Insulin receptor = Insulin receptor (Homo sapiens, UniProt P06213); format: functional;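 also: insulin receptor kinase tested as one member of a kinome-wide kinase panel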
[14] = molecular target: Serine/threonine-protein kinase pim-3 (Homo sapiens, UniProt Q86V86); format: functional;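 also: value obtained as one member of a broad kinase panel profiling effort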
[15] = molecular target: Non-receptor tyrosine-protein kinase TYK2 (Homo sapiens, UniProt P29597); format: functional
Chain of Non-receptor tyrosine-protein kinase TYK2 (P29597 whole entry): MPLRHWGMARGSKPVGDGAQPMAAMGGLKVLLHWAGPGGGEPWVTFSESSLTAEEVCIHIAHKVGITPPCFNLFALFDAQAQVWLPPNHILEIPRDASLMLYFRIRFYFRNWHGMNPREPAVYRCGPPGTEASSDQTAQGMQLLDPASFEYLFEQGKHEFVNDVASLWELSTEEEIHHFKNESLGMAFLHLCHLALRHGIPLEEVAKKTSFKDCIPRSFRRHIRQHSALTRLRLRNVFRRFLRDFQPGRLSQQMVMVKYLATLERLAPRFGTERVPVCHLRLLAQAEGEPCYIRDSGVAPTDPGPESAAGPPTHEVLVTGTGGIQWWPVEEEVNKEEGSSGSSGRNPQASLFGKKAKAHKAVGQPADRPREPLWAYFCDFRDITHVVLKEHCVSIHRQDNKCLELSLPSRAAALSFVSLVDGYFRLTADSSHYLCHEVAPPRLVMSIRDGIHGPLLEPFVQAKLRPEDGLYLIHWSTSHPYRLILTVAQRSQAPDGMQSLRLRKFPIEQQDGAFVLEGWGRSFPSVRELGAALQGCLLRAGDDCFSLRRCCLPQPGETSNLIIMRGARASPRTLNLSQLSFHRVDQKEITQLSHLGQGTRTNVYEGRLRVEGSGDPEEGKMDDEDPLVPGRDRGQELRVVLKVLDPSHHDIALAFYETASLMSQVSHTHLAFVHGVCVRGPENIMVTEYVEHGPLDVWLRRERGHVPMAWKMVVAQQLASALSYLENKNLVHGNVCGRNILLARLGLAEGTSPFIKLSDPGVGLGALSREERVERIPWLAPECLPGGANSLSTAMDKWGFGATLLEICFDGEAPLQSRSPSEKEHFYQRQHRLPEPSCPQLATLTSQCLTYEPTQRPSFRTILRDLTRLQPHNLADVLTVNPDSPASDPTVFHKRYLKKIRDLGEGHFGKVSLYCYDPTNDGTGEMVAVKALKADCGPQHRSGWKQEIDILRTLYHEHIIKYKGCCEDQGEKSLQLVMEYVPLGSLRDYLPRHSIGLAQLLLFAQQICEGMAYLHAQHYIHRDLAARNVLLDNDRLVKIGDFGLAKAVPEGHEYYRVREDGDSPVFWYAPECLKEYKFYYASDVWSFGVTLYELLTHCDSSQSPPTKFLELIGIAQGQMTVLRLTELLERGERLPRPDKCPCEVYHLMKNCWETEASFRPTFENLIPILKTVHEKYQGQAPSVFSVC

[16] = molecular target: Proto-oncogene tyrosine-protein kinase Src (Homo sapiens, UniProt P12931); format: functional;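 also: SRC entry within a kinome-wide kinase profiling panel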
[17] = molecular target: Serine/threonine-protein kinase Chk1 (Homo sapiens, UniProt O14757); format: functional;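 also: measured as one member of a kinome-wide kinase profiling panel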
Chain of Serine/threonine-protein kinase Chk1 (O14757 whole entry): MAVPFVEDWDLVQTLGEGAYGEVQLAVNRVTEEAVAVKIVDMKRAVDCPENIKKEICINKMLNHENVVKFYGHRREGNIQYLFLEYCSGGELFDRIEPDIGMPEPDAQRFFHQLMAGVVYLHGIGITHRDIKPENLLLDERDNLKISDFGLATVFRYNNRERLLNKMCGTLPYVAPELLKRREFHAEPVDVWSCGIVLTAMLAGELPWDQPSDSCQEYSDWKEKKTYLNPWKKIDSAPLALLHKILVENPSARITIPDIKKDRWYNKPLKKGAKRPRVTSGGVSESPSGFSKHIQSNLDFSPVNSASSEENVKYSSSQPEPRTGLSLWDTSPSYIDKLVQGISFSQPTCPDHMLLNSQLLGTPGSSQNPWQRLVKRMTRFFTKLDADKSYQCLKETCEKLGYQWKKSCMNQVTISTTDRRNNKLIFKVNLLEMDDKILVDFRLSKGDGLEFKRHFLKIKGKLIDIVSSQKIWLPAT

[18] = molecular target: MAP kinase-interacting serine/threonine-protein kinase 2 (Homo sapiens, UniProt Q9HBH9); format: functional
Chain of MAP kinase-interacting serine/threonine-protein kinase 2 (Q9HBH9 whole entry): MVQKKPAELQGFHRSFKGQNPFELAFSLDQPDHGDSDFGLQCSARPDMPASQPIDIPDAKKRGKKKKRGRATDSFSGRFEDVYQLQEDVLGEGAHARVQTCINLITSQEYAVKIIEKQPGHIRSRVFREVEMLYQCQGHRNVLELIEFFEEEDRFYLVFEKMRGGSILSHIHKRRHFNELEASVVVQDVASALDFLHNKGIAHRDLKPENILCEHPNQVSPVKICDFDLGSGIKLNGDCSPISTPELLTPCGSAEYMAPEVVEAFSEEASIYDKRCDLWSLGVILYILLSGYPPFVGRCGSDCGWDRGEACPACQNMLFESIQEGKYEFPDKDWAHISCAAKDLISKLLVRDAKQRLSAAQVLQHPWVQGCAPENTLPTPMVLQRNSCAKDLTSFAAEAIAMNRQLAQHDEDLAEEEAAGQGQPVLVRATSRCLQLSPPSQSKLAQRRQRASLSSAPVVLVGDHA

[19] = molecular target: Maternal embryonic leucine zipper kinase (Homo sapiens, UniProt Q14680); format: functional
Chain of Maternal embryonic leucine zipper kinase (Q14680 whole entry): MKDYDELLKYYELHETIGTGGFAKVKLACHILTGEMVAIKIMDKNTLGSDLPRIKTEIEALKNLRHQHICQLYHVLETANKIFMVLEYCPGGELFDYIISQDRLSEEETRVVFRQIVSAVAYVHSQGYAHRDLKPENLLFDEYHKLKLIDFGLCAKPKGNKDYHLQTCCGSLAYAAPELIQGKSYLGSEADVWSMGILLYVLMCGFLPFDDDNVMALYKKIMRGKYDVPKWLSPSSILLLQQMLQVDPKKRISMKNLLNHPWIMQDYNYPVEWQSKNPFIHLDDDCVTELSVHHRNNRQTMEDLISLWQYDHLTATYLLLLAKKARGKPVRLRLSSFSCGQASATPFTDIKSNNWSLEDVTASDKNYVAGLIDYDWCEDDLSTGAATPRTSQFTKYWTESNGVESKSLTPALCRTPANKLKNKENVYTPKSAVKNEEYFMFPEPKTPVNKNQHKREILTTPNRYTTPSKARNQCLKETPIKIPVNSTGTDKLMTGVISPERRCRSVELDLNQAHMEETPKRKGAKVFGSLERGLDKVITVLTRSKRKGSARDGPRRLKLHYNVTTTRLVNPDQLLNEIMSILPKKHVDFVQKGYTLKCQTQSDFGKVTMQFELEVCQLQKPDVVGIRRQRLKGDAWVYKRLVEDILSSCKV

[20] = molecular target: Serine/threonine-protein kinase pim-2 (Homo sapiens, UniProt Q9P1W9); format: functional;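 also: value comes from a broad kinase panel profiling study in which PIM2 was one of the panel members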
Chain of Serine/threonine-protein kinase pim-2 (Q9P1W9 whole entry): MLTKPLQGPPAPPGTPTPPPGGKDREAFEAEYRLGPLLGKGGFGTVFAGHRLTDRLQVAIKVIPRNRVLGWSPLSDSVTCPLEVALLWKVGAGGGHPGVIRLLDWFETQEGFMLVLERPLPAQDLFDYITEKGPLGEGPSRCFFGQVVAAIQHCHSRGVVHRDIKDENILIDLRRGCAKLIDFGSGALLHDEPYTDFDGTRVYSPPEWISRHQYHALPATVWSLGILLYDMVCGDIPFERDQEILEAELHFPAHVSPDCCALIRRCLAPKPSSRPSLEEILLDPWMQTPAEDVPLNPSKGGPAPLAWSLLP

[21] = molecular target: 3-phosphoinositide-dependent protein kinase 1 (Homo sapiens, UniProt O15530); format: functional;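 also: value comes from the Navigating the Kinome panel, PDPK1 member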
[22] = molecular target: Serine/threonine-protein kinase DCLK1 (Homo sapiens, UniProt O15075); format: functional;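 also: affinity for DCLK1 (listed as DCAMKL1) measured as one member of a kinome-wide kinase profiling panel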
[23] = molecular target: Glycogen synthase kinase-3 beta (Homo sapiens, UniProt P49841); format: functional;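 also: value comes from a broad kinome profiling panel, with GSK3B as the panel member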
[24] = molecular target: Receptor tyrosine-protein kinase erbB-4 (Homo sapiens, UniProt Q15303); format: functional;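 also: ERBB4 member of a kinome-wide kinase profiling panel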
[25] = molecular target: Serine/threonine-protein kinase MRCK alpha (Homo sapiens, UniProt Q5VT25); format: functional
[26] = molecular target: Inhibitor of nuclear factor kappa-B kinase subunit beta (Homo sapiens, UniProt O14920); format: functional
[27] = molecular target: Tyrosine-protein kinase receptor UFO (Homo sapiens, UniProt P30530); format: functional
[28] = Luminescence Cell-Based Dose Confirmation HTS to Identify Activators of 5'UTR Stem-Loop Driven Alpha-Synuclein mRNA Translation in H4 Neuroglioblastoma Cells. [Related pubchem assays: 1829 (Project Summary), 1814 (Primary HTS)]; format: functional
[29] = viability of PTEN-deleted HCT116 cells – cell-based, HCT116 PTEN knockout, dose response (AID 1047); format: functional;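 also: HCT116 colon tumor cells with PTEN knocked out; cells exposed to compound for 60 hours before readout; potency for loss of cell viability measured by luminescence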
[30] = HEK-293T viability loss after treatment – luminescence, T-cell screen hits, cytotoxicity control for TCR NF-kB inhibitor project, dose response (AID 489026); format: functional, cell-based;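 also: cells exposed to compound about 14 hours before the viability readout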
Hexokinase HKDC1 = molecular target: T1, Hexokinase HKDC1 (Homo sapiens, UniProt Q2TB90); assay: inhibition of HKDC1 glucose phosphorylation – biochemical, W721R variant, dose response (AID 504729); format: functional
T1 sequence (Q2TB90 whole entry): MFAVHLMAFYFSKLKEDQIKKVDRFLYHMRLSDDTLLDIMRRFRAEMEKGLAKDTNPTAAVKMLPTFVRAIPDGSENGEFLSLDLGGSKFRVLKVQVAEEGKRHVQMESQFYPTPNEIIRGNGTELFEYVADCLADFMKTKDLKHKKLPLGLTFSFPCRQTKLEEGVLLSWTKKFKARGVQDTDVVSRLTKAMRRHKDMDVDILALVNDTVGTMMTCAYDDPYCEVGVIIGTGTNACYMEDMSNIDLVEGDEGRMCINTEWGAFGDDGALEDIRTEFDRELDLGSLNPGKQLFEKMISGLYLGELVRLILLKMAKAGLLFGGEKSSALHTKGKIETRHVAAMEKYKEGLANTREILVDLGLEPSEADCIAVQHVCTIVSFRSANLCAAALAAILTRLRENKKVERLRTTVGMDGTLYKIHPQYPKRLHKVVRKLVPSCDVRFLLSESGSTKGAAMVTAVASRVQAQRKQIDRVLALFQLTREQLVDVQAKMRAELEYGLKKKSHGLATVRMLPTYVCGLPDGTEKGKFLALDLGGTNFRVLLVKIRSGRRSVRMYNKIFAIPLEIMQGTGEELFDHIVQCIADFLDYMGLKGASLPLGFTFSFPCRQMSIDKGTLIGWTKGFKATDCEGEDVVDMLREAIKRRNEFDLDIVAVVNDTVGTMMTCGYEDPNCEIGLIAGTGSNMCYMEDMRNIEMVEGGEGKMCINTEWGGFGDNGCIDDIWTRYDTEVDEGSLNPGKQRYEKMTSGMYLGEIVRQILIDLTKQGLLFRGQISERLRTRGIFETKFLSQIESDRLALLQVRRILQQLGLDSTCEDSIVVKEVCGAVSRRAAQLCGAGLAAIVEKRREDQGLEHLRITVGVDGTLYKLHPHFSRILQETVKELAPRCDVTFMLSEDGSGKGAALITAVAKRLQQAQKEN

Ki [1]: > 2510 nM (inactive)
Ki (Activated CDC42 kinase 1): > 3980 nM (inactive)
Ki [2]: 3980 nM (active)
Ki [3]: > 3160 nM (inactive)
Ki [4]: > 1580 nM (inactive)
Ki [5]: > 3980 nM (inactive)
Ki [6]: > 7940 nM (inactive)
Structure (SMILES): CCn1c(-c2nonc2N)nc2cncc(C(=O)N3CCC(N)C3)c21 (centres undefined)

Structure (SMILES): Cc1[nH]nc2ccc(-c3cncc(OCC(N)Cc4c[nH]c5ccccc45)c3)cc12 (centres undefined)
Ki [7]: 12.6 nM (active)
Ki [8]: > 3980 nM (inactive)
Ki [9]: > 1580 nM (inactive)
Ki (SRSF protein kinase 1): 1260 nM (active)
Ki [10]: > 1580 nM (inactive)
Ki [11]: 12.6 nM (active)
Ki [12]: 5.01 nM (active)
Ki [13]: 794 nM (active)
Ki (Insulin receptor): 3980 nM (active)
Ki [14]: 10 nM (active)
Ki [15]: > 2000 nM (inactive)
Ki [16]: > 2000 nM (inactive)
Ki [17]: > 7940 nM (inactive)
Ki [18]: 3980 nM (active)
Ki [19]: 316 nM (active)
Ki [20]: 6.31 nM (active)
Ki [21]: 1580 nM (active)
Ki [22]: 6310 nM (active)
Ki [23]: 10 nM (active)
Ki [24]: > 3980 nM (inactive)
Ki [25]: 50.1 nM (active)
Ki [26]: > 3160 nM (inactive)
Ki [27]: 794 nM (active)

Structure (SMILES): COC(=O)c1ccccc1NC1=C/C(=N\S(=O)(=O)c2cccs2)c2ccccc2C1=O
EC50 [28]: > 120000 nM (not active)
EC50 [29]: 7960 nM (active)
IC50 [30]: 980 nM (active)
IC50 (Hexokinase HKDC1): 27500 nM (inactive)
